# System: U937 cell line (human histiocytic lymphoma cell line)
# Test: U937 cell viability assay (TNF-α + Z-VAD-FMK induced necroptosis)
# Assay type: cell-based
# Settings: Homo sapiens, U-937; U937 cells, hTNF-α 0.1 μg/mL + Z-VAD-FMK 50 μM, 20 hours, CellTiter-Glo
# Method in brief: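 U937 cells (1.75×10^4/well, 1% FBS RPMI 1640) were preincubated 1 h with compound (0.0005–1.0 μM, 0.3% DMSO) and 50 μM Z-VAD-FMK, then stimulated with 0.1 μg/mL TNF-α for 20 h at 37 °C. Viability was read by CellTiter-Glo luminescence. Inhibition was normalised between TNF-α+Z-VAD and unstimulated wells, and IC50 was fitted.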
row,Structure (SMILES),IC50 [nM]
1,"CC(C)n1ncc2cnc(C(=O)NC3(c4ccc(-c5cncn(C)c5=O)c(F)c4)CC3)nc21 [Compound 23, N-(1-(3-fluoro-4-(1-methyl-6-oxo-1,6-dihydropyrimidin-5-yl)phenyl)cyclopropyl)-1-isopropyl-1H-pyrazolo[3,4-d]pyrimidine-6-carboxamide]",57
2,"CC(C)n1cncc(-c2ccc(C3(NC(=O)c4ncc5cnn([C@H](C)C6CC6)c5n4)CC3)cc2)c1=O [Compound 89, (R)-1-(1-cyclopropylethyl)-N-(1-(4-(1-i-propyl-6-oxo-1,6-dihydropyrimidin-5-yl)phenyl)cyclopropyl)-1H-pyrazolo[3,4-d]pyrimidine-6-carboxamide]",5
3,CC(C)n1cncc(-c2ccc(C3(NC(=O)c4ncc5cnn(-c6ccccc6)c5n4)CC3)cc2)c1=O [Compound 19],3
4,Cn1cncc(-c2ccc(C3(NC(=O)c4ncc5cnn(-c6ccccc6)c5n4)CC3)cc2)c1=O [Compound 4],17
5,CC(C)n1cncc(-c2ccc(C3(NC(=O)c4ncc5cnn(C6COC6)c5n4)CC3)cc2)c1=O [Compound 60],66
6,"CC(C)n1cncc(-c2ccc(C3(NC(=O)c4ncc5cnn(C(C)C6CC6)c5n4)CC3)cc2)c1=O (racemic) [Compound 59, 1-(1-cyclopropylethyl)-N-(1-(4-(1-i-propyl-6-oxo-1,6-dihydropyrimidin-5-yl)phenyl)cyclopropyl)-1H-pyrazolo[3,4-d]pyrimidine-6-carboxamide]",3
7,CC(C)n1ncc2cnc(C(=O)NC3(c4ccc(-c5cnc(N)n(C)c5=O)cc4)CC3)nc21 [Compound 30],8
8,CC(C)n1cncc(-c2ccc(C3(NC(=O)c4ncc5cnn(CC6CC6)c5n4)CC3)cc2F)c1=O [Compound 73],2
9,"CC(C)n1cncc(-c2ccc(C3(NC(=O)c4ncc5cnn(C(C)C)c5n4)CC3)cc2)c1=O [Compound 29, 1-isopropyl-N-(1-(4-(1-isopropyl-6-oxo-1,6-dihydropyrimidin-5-yl)phenyl)cyclopropyl)-1H-pyrazolo[3,4-d]pyrimidine-6-carboxamide]",3
10,CC(C)n1ncc2cnc(C(=O)NC3(c4ccc(-c5cncn(C6CC(F)(F)C6)c5=O)cc4)CC3)nc21 [Compound 65],7
11,CC(C)n1ncc2cnc(C(=O)NC3(c4ccc(-c5cncn(C6CCOCC6)c5=O)cc4)CC3)nc21 [Compound 77],10
12,CC(C)Cc1nc(C(=O)NC2(c3ccc(-c4cncn(C(C)C)c4=O)cc3)CC2)ncc1Cl [Compound 22],3
13,CC(C)n1ncc2cnc(C(=O)NC3(c4ccc(-c5cncn(CC6CC6)c5=O)cc4)CC3)nc21 [Compound 36],3
14,CC(C)n1ncc2cnc(C(=O)NC3(c4ccc(-c5cncn(CC6(C)CC6)c5=O)cc4)CC3)nc21 [Compound 86],1
15,"CC(C)n1ncc2cnc(C(=O)NC3(c4ccc(-c5cncn(C)c5=O)cc4)CC3)nc21 [Compound 1, 1-isopropyl-N-(1-(4-(1-methyl-6-oxo-1,6-dihydropyrimidin-5-yl)phenyl)cyclopropyl)-1H-pyrazolo[3,4-d]pyrimidine-6-carboxamide]",21
16,CC(C)n1cncc(-c2ccc(C3(NC(=O)c4ncc5cnn(C(C)C)c5n4)CC3)cc2F)c1=O [Compound 35],11
17,CC(C)n1ncc2cnc(C(=O)NC3(c4ccc(-c5cncn([C@H](C)C(F)(F)F)c5=O)cc4F)CC3)nc21 (stereo in doubt) [Compound 46],2
18,CC(C)Cc1nc(C(=O)NC2(c3ccc(-c4cncn(C)c4=O)cc3)CC2)ncc1Cl [Compound 6],21
19,Cn1cncc(-c2ccc(C3(NC(=O)c4noc(Cc5ccccc5)n4)CC3)cc2)c1=O [Compound 9],52
20,"CC(C)n1cncc(-c2ccc(C3(NC(=O)c4ncc5cnn([C@@H](C)C6CC6)c5n4)CC3)cc2)c1=O [Compound 90, (S)-1-(1-cyclopropylethyl)-N-(1-(4-(1-i-propyl-6-oxo-1,6-dihydropyrimidin-5-yl)phenyl)cyclopropyl)-1H-pyrazolo[3,4-d]pyrimidine-6-carboxamide]",4
21,CC(C)n1cncc(-c2cc(F)c(C3(NC(=O)c4ncc5cnn(C(C)C)c5n4)CC3)c(F)c2)c1=O [Compound 92],100

row,Structure (SMILES),IC50 [nM]
1,Cn1cncc(-c2ccc(C3(NC(=O)c4cc(Cc5ccccc5)on4)CC3)cc2)c1=O [Compound 5],24
2,"Cn1cncc(-c2ccc(C3(NC(=O)c4nc5n(n4)[C@@H](c4ccccc4)CC5)CC3)cc2)c1=O [Compound 54, (R)—N-(1-(4-(1-methyl-6-oxo-1,6-dihydropyrimidin-5-yl)phenyl)cyclopropyl)-5-phenyl-6,7-dihydro-5H-pyrrolo[1,2-b][1,2,4]triazole-2-carboxamide]",12
3,CC(C)n1cncc(-c2ccc(C3(NC(=O)c4nnc(Cc5ccccc5)o4)CC3)cc2)c1=O [Compound 13],4
4,CC(C)n1ncc2cnc(C(=O)NC3(c4ccc(-c5cncn(C)c5=O)cn4)CC3)nc21 [Compound 2],170
5,CC(C)n1cncc(-c2ccc(C3(NC(=O)c4ncc5cnn(C(C)C)c5n4)CC3)c(F)c2Cl)c1=O [Compound 91],11
6,CC(C)n1ncc2cnc(C(=O)NC3(c4ccc(-c5cncn(CC6CCC6)c5=O)cc4)CC3)nc21 [Compound 66],3
7,CC(C)n1ncc2cnc(C(=O)NC3(c4ccc(-c5cncn(C)c5=O)c(Cl)c4)CC3)nc21 [Compound 25],32
8,Cn1cncc(-c2ccc(C3(NC(=O)c4ncn(Cc5ccccc5)n4)CC3)cc2)c1=O [Compound 8],14
9,CC(C)n1ncc2cnc(C(=O)NC3(c4ccc(-c5cncn(C6(C)CCC6)c5=O)cc4)CC3)nc21 [Compound 79],2
10,CCn1cncc(-c2ccc(C3(NC(=O)c4ncc5cnn(C(C)C)c5n4)CC3)cc2)c1=O [Compound 37],14
11,CC(C)n1ncc2cnc(C(=O)NC3(c4cc(F)c(-c5cncn(CC6CC6)c5=O)cc4F)CC3)nc21 [Compound 94],3
12,CC(C)n1ncc2cnc(C(=O)NC3(c4ccc(-c5cncn([C@@H](C)C(F)(F)F)c5=O)cc4)CC3)nc21 [Compound 40],12
13,Cn1cncc(-c2ccc(C3(NC(=O)c4nnc(Cc5ccccc5)[nH]4)CC3)cc2)c1=O [Compound 3],21
14,CC(C)n1cncc(-c2ccc(C3(NC(=O)c4ncc5cnn(C(C)C)c5n4)CC3)cc2Cl)c1=O [Compound 33],10
15,C[C@H](n1cncc(-c2ccc(C3(NC(=O)c4ncc5cnn(CC6CC6)c5n4)CC3)cc2)c1=O)C(F)(F)F [Compound 68],6
16,CC(C)n1cncc(-c2ccc(C3(NC(=O)c4ncc5cnn(C(C)C)c5n4)CC3)c(F)c2F)c1=O [Compound 93],6
17,CC(C)Cn1cncc(-c2ccc(C3(NC(=O)c4ncc5cnn(C(C)C)c5n4)CC3)cc2)c1=O [Compound 45],2
18,CC(C)n1ncc2cnc(C(=O)NC3(c4ccc(-c5cncn([C@@H](C)C(F)(F)F)c5=O)cc4F)CC3)nc21 (stereo in doubt) [Compound 47],2
19,CC[C@@H](C)n1cncc(-c2ccc(C3(NC(=O)c4ncc5cnn(C(C)C)c5n4)CC3)cc2)c1=O [Compound 44],2
20,"CC(C)n1ncc2cnc(C(=O)NC3(c4ccc(-c5cncn([C@@H](C)C6CC6)c5=O)cc4)CC3)nc21 [Compound 85, (S)—N-(1-(4-(1-(1-cyclopropylethyl)-6-oxo-1,6-dihydropyrimidin-5-yl)phenyl)cyclopropyl)-1-i-propyl-1H-pyrazolo[3,4-d]pyrimidine-6-carboxamide]",2

# Reference: patent US20240002388A1, “PYRIMIDINONE COMPOUNDS AND USES THEREOF” (HUTCHISON MEDIPHARMA LIMITED, priority 2020, published 2024)
